# Measurements from BindingDB's records for doi:10.1021/jm00006a008 (Glaxo Research Institute, 1995).
# Assay: Inhibitory concentration against topoisomerase I obtained from calf thymus
structure (smiles),measurement,value
"CC[C@]1(O)C(=O)OCc2c1cc1n(c2=O)Cc2c-1nc1ccc(F)cc1c2C(=O)O [(R)-4-Ethyl-9-fluoro-4-hydroxy-3,13-dioxo-3,4,12,13-tetrahydro-1H-2-oxa-6,12a-diaza-dibenzo[b,h]fluorene-11-carboxylic acid]",IC50,3.1 µM
